Columns and labels:
sucrose consumption = system: sucrose consumption; parameters: method as in PMID 26719283; conditions: rats; chronic unpredicted mild stress; cited from earlier work
5-HT1B = 5-HT1B (Homo sapiens, UniProt P28222); assay: CNS receptor binding, 5-HT1B; conditions: HEK293 cell line, [3H]-LSD(6)
Experimental: (§1) Albiflorin (10 μM) was tested for numerous other potential binding targets by using standard receptor binding procedures. The tested targets included the following receptors: D1, D2, D3, D4, D5, 5-HT1A, 5-HT1B, 5-HT1D, 5-HT2a, 5-HT2C, 5-HT3, 5-HT5A, 5-HT6, 5-HT7, α1A, α1B, α2A, β1, M1, M2, M3, M4, M5, μ, κ, δ, A1, A2A, H1, H2, H3, H4.

hNET = molecular target: T1, hNET (Homo sapiens, UniProt P23975); assay: [3H]-NE uptake in transporter-transfected HEK293 cells; format: cell-based; conditions: HEK293 cell line, read-out: IC50 values, uptake of [3H]-NE (NET)
T1 construct: expressed in transfected cells
Experimental: (§2) The uptake of 5-HT, NE and DA into HEK293 cells stably expressing human transporters was determined using methods previously described with slight modifications. Briefly, the culture medium was removed from cells, and the cells were washed once with phosphate-buffered saline. Krebs-Ringers-HEPES (KRH) assay buffer (100 μL/well, containing 120 mM NaCl, 4.7 mM KCl, 2.2 mM CaCl2, 1.2 mM MgSO4, 1.2 mM […], 10 mM HEPES, pH 7.4) was then added. Various concentrations of drugs were administered to cells in a 24-well plate. The uptake was initiated by the addition of [^3H]-5-HT (50 nM), [^3H]-NE (80 nM), or [^3H]-DA (50 nM). Uptake was terminated by five washes using cold KRH assay buffer after 10-min incubation at 37 °C. The cells were solubilised using 400 μL of scintillation fluid and counted using a Packard Top Count scintillation counter.
(§3) All data for inhibition curves were analysed by nonlinear regression using Prism software (GraphPad Software Inc., San Diego, CA) to determine IC50 values. For the microdialysis experiments, two-way repeated-measures ANOVA followed by Tukey’s test was used to compare the percentage increase over baseline between groups, time and treatment as independent factors, and time as the repeated factor.

5-HT2a = 5-HT2a (Homo sapiens, UniProt P28223); assay: CNS receptor binding, 5-HT2a; conditions: HEK293 cell line, [3H]-ketanserin(1)
Experimental: as §1

hypothalamic 5-HT levels = assay: In vivo microdialysis, extracellular 5-HT; parameters: species or system rats
Experimental: (§4) The effect of albiflorin on extracellular monoamine levels in […] was determined using methods previously described. Microdialysis probes (CMA Microdialysis) with an active membrane surface of 2 mm were perfused with artificial cerebrospinal fluid (125 mM NaCl, 3 mM KCl, 0.75 mM MgSO4 and 1.2 mM CaCl2, pH 7.4) in situ for at least 18 h before experimentation. The microdialysis probe was then implanted via the guide cannula into the hypothalamus and perfused with artificial cerebral spinal fluid at a flow rate of 1 μL/min. A 3-h stabilisation period was allowed after probe implantation, and dialysate sampling was conducted according to previously described methods. […] All subsequent values were expressed as a percentage of the mean preinjection value (i.e., percentage of baseline). […] For a minimum of 3 h after albiflorin administration, dialysis samples were collected every 20 min and analysed to determine the levels of NE, 5-HT and DA. […] A 20-μL sample from the hypothalamus was analysed for 5-HT, NE and DA content using methods described previously. […] External standard curves were used to quantify the amounts of NE, 5-HT and DA in each sample, which was calculated using the area under the curve.
(§5) All data for inhibition curves were analysed by nonlinear regression using Prism software (GraphPad Software Inc., San Diego, CA) to determine IC50 values. […]

5-HT2C = 5-HT2C (Homo sapiens, UniProt P28335); assay: CNS receptor binding, 5-HT2C; conditions: CHO cell lines, [3H]-mesulergine(1)
Experimental: as §1

hypothalamic NE levels = assay: In vivo microdialysis, extracellular NE; parameters: species or system rats
Experimental: as §4, §5

hSERT = molecular target: T2, hSERT (Homo sapiens, UniProt P31645); format: cell-based; conditions: HEK293 cell line, read-out: IC50 values, uptake of [3H]-5-HT (SERT)
T2 construct: expressed in transfected cells
Experimental: as §2, §3

hDAT [1] = molecular target: T3, hDAT (Homo sapiens, UniProt Q01959); format: cell-based; conditions: HEK293 cell line, read-out: IC50 values, uptake of [3H]-DA (DAT)
T3 construct: expressed in transfected cells
Experimental: as §2, §3

H2 = H2 (Homo sapiens, UniProt P25021); assay: CNS receptor binding, histamine H2; conditions: HEK293 cell line, [3H]-tiotodine(1)
Experimental: as §1

α1B = α1B (Homo sapiens, UniProt P35368); assay: CNS receptor binding, NE receptor α1B; conditions: HEK293 cell line, [3H]-parzosin(1)
Experimental: as §1

δ = δ (Homo sapiens, UniProt P41143); assay: CNS receptor binding, opioid δ; conditions: CHO cell line, [3H]-dipnorphine(1)
Experimental: as §1

hDAT [2] = molecular target: T3, hDAT; conditions: [3H]-win35,428, HEK293 cell line, read-out: Ki values, DAT binding
Experimental: Membranes were prepared from HEK293 cells stably expressing hSERT, hNET, or hDAT as described previously. Briefly, [^3H]-citalopram (1 nM), [^3H]-nisoxetine (2 nM), or [^3H]-WIN35,428 (2 nM) was used to label human 5-HT, NE, or DA transporters, respectively.
as §3

[3] = read-out: IC50 values for albiflorin

Chain of 5-HT1B (P28222 whole entry): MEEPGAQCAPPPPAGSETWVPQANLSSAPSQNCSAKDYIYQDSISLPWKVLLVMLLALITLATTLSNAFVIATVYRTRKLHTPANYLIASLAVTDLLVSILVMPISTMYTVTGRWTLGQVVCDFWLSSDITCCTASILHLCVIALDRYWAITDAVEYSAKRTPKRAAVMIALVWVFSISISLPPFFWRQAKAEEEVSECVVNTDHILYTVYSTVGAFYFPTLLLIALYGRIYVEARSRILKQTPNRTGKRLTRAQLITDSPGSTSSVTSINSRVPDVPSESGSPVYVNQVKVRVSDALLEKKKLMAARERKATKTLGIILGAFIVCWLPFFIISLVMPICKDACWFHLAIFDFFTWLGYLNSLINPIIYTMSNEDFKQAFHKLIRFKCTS
Chain of H2 (P25021 whole entry): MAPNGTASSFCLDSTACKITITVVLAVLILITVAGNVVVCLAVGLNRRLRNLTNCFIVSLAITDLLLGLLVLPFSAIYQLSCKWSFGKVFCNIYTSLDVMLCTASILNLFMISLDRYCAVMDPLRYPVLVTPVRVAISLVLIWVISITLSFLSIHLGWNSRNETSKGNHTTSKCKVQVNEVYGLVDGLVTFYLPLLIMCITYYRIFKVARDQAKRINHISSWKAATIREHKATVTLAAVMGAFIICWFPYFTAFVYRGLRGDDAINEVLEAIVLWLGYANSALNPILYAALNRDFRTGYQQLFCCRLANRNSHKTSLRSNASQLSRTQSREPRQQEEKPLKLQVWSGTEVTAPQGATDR
Chain of 5-HT2C (P28335 33-458): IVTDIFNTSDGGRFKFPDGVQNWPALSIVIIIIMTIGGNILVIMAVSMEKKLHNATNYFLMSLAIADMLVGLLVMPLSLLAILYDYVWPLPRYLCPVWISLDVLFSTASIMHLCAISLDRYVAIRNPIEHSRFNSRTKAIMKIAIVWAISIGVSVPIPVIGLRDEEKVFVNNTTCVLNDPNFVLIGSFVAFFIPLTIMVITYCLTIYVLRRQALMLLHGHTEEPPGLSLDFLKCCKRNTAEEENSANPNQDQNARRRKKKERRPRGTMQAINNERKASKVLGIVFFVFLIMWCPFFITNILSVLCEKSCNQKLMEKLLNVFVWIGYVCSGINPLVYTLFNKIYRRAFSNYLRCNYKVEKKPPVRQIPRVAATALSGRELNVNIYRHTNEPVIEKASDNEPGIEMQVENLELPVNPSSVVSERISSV
Chain of α1B (P35368 whole entry): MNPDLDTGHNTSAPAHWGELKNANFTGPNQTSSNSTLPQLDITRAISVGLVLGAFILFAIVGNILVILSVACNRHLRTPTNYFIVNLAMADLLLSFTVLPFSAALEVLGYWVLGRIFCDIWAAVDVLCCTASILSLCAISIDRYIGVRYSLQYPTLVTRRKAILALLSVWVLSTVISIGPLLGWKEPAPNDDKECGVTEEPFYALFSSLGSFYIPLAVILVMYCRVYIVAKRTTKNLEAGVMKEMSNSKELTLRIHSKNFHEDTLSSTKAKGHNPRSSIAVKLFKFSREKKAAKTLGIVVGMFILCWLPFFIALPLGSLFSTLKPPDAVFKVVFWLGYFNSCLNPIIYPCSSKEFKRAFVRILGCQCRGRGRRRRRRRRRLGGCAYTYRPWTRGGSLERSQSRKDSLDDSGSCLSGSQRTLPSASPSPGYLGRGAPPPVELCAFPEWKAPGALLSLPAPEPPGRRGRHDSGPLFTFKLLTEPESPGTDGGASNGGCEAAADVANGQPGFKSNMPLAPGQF
Chain of δ (P41143 whole entry): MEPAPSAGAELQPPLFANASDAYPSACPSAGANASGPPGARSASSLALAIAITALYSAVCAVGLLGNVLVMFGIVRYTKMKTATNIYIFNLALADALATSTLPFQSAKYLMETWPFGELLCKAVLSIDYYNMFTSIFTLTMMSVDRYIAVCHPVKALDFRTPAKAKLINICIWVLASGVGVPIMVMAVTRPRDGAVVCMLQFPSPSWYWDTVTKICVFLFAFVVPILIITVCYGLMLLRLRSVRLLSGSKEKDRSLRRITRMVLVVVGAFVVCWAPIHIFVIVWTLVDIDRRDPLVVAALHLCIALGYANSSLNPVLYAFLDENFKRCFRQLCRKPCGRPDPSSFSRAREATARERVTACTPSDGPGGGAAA
T3 sequence (Q01959 whole entry): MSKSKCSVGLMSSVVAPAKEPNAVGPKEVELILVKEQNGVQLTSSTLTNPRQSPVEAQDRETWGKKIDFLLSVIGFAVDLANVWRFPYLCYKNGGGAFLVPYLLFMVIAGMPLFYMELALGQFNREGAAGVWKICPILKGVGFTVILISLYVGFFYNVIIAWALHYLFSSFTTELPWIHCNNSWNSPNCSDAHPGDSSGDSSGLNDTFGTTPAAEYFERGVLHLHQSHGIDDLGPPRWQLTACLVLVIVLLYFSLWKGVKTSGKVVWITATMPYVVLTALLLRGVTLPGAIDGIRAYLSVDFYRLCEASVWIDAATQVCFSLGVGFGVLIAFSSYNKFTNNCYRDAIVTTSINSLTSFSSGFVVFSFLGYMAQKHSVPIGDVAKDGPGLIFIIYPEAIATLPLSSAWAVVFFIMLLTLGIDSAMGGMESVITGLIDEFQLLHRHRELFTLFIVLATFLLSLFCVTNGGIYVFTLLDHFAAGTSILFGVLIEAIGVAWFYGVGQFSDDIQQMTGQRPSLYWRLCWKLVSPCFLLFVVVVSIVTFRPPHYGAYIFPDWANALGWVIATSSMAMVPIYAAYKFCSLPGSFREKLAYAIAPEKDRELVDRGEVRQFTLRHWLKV
Chain of 5-HT2a (P28223 whole entry): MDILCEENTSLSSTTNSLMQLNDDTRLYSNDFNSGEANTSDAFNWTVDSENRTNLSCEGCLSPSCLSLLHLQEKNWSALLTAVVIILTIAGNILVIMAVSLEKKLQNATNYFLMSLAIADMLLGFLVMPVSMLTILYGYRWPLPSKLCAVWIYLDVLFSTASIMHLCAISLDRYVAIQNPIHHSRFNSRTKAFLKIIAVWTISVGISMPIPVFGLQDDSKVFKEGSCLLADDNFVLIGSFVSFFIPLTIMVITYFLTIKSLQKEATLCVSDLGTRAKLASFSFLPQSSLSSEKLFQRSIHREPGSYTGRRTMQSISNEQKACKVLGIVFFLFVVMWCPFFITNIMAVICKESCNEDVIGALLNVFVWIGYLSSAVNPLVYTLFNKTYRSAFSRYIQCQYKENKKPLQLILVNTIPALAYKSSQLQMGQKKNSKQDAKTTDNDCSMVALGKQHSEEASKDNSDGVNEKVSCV
T2 sequence (P31645 whole entry): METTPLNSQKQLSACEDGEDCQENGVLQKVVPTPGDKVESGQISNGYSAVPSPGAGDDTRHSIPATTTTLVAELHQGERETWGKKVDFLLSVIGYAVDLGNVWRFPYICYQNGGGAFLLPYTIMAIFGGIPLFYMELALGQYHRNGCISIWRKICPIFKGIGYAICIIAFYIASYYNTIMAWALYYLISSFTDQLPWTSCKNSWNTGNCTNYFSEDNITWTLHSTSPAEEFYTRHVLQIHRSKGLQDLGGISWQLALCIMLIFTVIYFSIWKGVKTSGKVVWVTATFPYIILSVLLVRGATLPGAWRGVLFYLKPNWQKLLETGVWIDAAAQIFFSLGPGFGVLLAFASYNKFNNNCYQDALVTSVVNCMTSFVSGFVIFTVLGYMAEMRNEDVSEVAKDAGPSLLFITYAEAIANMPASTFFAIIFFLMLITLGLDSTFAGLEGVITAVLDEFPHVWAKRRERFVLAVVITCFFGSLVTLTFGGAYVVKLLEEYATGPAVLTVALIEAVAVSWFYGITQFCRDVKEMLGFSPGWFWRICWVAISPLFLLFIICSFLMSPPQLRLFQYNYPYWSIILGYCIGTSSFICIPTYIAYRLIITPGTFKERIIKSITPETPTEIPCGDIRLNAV
T1 sequence (P23975 whole entry): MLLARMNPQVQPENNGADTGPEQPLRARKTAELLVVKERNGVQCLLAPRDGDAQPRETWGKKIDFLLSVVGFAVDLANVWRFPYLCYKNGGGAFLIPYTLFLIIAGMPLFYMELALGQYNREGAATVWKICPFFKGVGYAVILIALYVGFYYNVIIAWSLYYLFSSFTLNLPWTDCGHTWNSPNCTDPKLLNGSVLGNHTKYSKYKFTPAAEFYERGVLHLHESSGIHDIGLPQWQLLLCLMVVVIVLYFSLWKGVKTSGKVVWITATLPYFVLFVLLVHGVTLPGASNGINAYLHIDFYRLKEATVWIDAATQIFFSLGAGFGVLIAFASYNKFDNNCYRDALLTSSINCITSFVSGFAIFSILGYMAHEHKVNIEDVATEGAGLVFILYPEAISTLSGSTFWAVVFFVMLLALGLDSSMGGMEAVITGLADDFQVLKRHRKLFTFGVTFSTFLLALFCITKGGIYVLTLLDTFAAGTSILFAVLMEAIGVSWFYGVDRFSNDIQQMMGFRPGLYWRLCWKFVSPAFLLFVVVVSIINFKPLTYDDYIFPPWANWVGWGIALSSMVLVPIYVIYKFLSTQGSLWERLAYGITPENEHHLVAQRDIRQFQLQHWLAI

With `C[C@]12C[C@@H](O)[C@@H]3C[C@@]1(O[C@@H]1O[C@H](CO)[C@@H](O)[C@H](O)[C@H]1O)[C@@]3(COC(=O)c1ccccc1)C(=O)O2` [albiflorin, Albiflorin] as the compound, how does the “antidepressant-like effect, sucrose consumption” value (sucrose consumption) read?
Its value is “reversal of chronic unpredicted mild stress-induced inhibition of sucrose consumption”.

And the “% Inhibition of binding at 10 μM albiflorin” value (“% Inhibition of binding” below) (5-HT1B)?
Its value is 16.60%.

And the IC50 (5-HT1B; [3])?
Its IC50 is over 10 µM.

And the IC50 (hNET)?
Its IC50 is 0.00036 ± 8e-05 µM.

And the “% Inhibition of binding” value (5-HT2a)?
The value was 55.36%.

What about the IC50 (5-HT2a; [3]) of the same compound?
The IC50 was 4 ± 0.113 µM.

And the “effect on hypothalamic 5-HT levels” value (hypothalamic 5-HT levels; acute oral administration, 3.5, 7.0, 14.0 mg/kg, freely moving rats, vs vehicle)?
The value was “significant increase”.

What about the “time of peak 5-HT increase post administration” value (hypothalamic 5-HT levels; oral, rats, microdialysis) of the same compound?
Its value is 1 h.

What about the “% Inhibition of binding” value (5-HT2C) of the same compound?
Its value is 33.66%.

What about the IC50 (5-HT2C; [3]) of the same compound?
The IC50 was over 10 µM.

What about the “effect on hypothalamic NE levels” value (hypothalamic NE levels; acute oral administration, 3.5, 7.0, 14.0 mg/kg, freely moving rats) of the same compound?
Its value is “dose- and time-dependent increase”.

And the “time of peak NE increase after administration” value (hypothalamic NE levels; oral, rats, microdialysis)?
The value was 1 h.

And the IC50 (hSERT)?
The IC50 was 0.00236 ± 0.00074 µM.

What about the IC50 (hDAT [1]) of the same compound?
Its IC50 is 2.24 ± 0.025 µM.

And the “% Inhibition of binding” value (H2)?
Its value is 68.99%.

What about the IC50 (H2; [3]) of the same compound?
The IC50 was 4 ± 0.201 µM.

And the “% Inhibition of binding” value (α1B)?
The value was 12.33%.

And the IC50 (α1B; [3])?
The IC50 was over 10 µM.

What about the “% Inhibition of binding” value (δ) of the same compound?
The value was 66.33%.

What about the IC50 (δ; [3]) of the same compound?
Its IC50 is 3.66 ± 0.201 µM.

What about the Ki (hDAT [2]) of the same compound?
The Ki was 1.48 ± 0.0333 µM.

Reference: PMC5028780, “Receptor and transporter binding and activity profiles of albiflorin extracted from Radix paeoniae Alba” (Scientific Reports, 2016)
